The supplement of paper PMC8671470

Columns and labels:
Settings in all cases: 72 h
[1] = test system: myeloid leukemia patient primary cells Pat.14; assay: cell viability (% survival relative to DMSO control); higher = less cytotoxic
Method in brief: (§1)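 Thawed, Ficoll-purified mononuclear cells from AML or CML patients in RPMI 1640 with 10% FBS were seeded at 10,000 cells/well on 384-well plates pre-printed with 70 compounds at five tenfold concentrations, 1–10,000 nM, in duplicate, for 72 h. Viability was read by CellTiter-Glo and normalised to DMSO and 10 μM proteasome-inhibitor wells. Where given, area under the curve came from four-parameter log-logistic fits (drc, PharmacoGx R packages).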

[2] = test system: myeloid leukemia patient primary cells Pat.1; assay: as above
Method in brief: as §1

[3] = test system: myeloid leukemia patient primary cells Pat.12; assay: as above
Method in brief: as §1

[4] = test system: myeloid leukemia patient primary cells Pat.2; assay: as above
Method in brief: as §1

[5] = test system: myeloid leukemia patient primary cells Pat.3; assay: as above
Method in brief: as §1

[6] = test system: myeloid leukemia patient primary cells Pat.5; assay: as above
Method in brief: as §1

[7] = test system: myeloid leukemia patient primary cells Pat.8; assay: as above
Method in brief: as §1

[8] = test system: myeloid leukemia patient primary cells Pat.15; assay: as above
Method in brief: as §1

[9] = test system: myeloid leukemia patient primary cells Pat.11; assay: as above
Method in brief: as §1

[10] = test system: myeloid leukemia patient primary cells Pat.13; assay: as above
Method in brief: as §1

[11] = test system: myeloid leukemia patient primary cells Pat.6; assay: as above
Method in brief: as §1

[12] = test system: myeloid leukemia patient primary cells Pat.4; assay: as above
Method in brief: as §1

[13] = test system: myeloid leukemia patient primary cells Pat.9; assay: as above
Method in brief: as §1

[14] = test system: myeloid leukemia patient primary cells Pat.10; assay: as above
Method in brief: as §1

[15] = test system: myeloid leukemia patient primary cells Pat.7; assay: as above
Method in brief: as §1

[16] = test system: myeloid leukemia patient primary cells Pat.14; assay: area under dose-response curve (viability, 1 nM-10 uM) (fraction (0-1)); higher = more sensitive
Description: (§2)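 AUC (0–1, higher = more sensitive) of the 5-point dose–response (1 nM–10 µM, 72 h, CellTiter-Glo) in primary AML/CML patient mononuclear cells. 0.030103 is the floor for inactive compounds.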

[17] = test system: myeloid leukemia patient primary cells Pat.1; assay: as above
Description: as §2

[18] = test system: myeloid leukemia patient primary cells Pat.12; assay: as above
Description: as §2

[19] = test system: myeloid leukemia patient primary cells Pat.2; assay: as above
Description: as §2

[20] = test system: myeloid leukemia patient primary cells Pat.3; assay: as above
Description: as §2

[21] = test system: myeloid leukemia patient primary cells Pat.5; assay: as above
Description: as §2

[22] = test system: myeloid leukemia patient primary cells Pat.8; assay: as above
Description: as §2

[23] = test system: myeloid leukemia patient primary cells Pat.15; assay: as above
Description: as §2

[24] = test system: myeloid leukemia patient primary cells Pat.11; assay: as above
Description: as §2

[25] = test system: myeloid leukemia patient primary cells Pat.13; assay: as above
Description: as §2

[26] = test system: myeloid leukemia patient primary cells Pat.6; assay: as above
Description: as §2

[27] = test system: myeloid leukemia patient primary cells Pat.4; assay: as above
Description: as §2

[28] = test system: myeloid leukemia patient primary cells Pat.9; assay: as above
Description: as §2

[29] = test system: myeloid leukemia patient primary cells Pat.10; assay: as above
Description: as §2

[30] = test system: myeloid leukemia patient primary cells Pat.7; assay: as above
Description: as §2

CC(C)c1onc(-c2c(Cl)cccc2Cl)c1COc1ccc(/C=C/c2cccc(C(=O)O)c2)c(Cl)c1 [GW 4064]
cell viability [%]
Settings | 1 nM | 10 nM | 100 nM | 1000 nM | 10000 nM
[1] | 84.9 | 69.6 | 66 | 63.2 | 2.05
[2] | > 100 | 91.2 | 95.4 | 99.2 | 68.8
[3] | 92.5 | 94.8 | 97.5 | 95.5 | 89.8
[4] | 98.1 | 94.5 | 84.4 | 96.8 | 92.7
[5] | 83.5 | 78.7 | 86.3 | 16.1 | 0.177
[6] | 80.1 | 49.1 | 67.6 | 2.27 | 0.265
[7] | 91.6 | 88.4 | 64 | 90.2 | 81.9
[8] | 92.6 | 95.2 | 95.5 | 98 | 89.7
[9] | 96.4 | 95.9 | 99.3 | 90.6 | 74.3
[10] | 99.3 | 88.8 | 78.5 | 81.7 | 52.7
[11] | > 100 | 94.1 | 99.2 | 92.7 | 62.8
[12] | 81.1 | 92 | 96.4 | 91.2 | 64
[13] | 59.1 | 40.4 | 48.8 | 3.95 | < 0
[14] | 61.6 | 86.6 | 38.4 | 8.43 | 9.05
[15] | 64.4 | 67.8 | 67.5 | 40.3 | < 0

Settings | area under dose-response curve
[16] | 0.18
[17] | < 0.0301
[18] | < 0.0301
[19] | < 0.0301
[20] | 0.323
[21] | 0.413
[22] | < 0.0301
[23] | < 0.0301
[24] | < 0.0301
[25] | 0.0666
[26] | 0.0544
[27] | < 0.0301
[28] | 0.539
[29] | 0.473
[30] | 0.278

CCn1c(=O)/c(=C2\Sc3ccccc3N2C)s/c1=C\c1cccc[n+]1CC.[Cl-] [MKT-077]
cell viability [%]
Settings | 1 nM | 10 nM | 100 nM | 1000 nM | 10000 nM
[1] | 49.3 | 84.2 | > 100 | 100 | 61.8
[2] | 88.7 | 75.1 | 99.5 | 96.7 | 79.3
[3] | 95.4 | 95.7 | 97 | 97.5 | 91.4
[4] | 93.4 | 99.4 | 98.1 | 99.9 | 85.4
[5] | 46.3 | 84.2 | > 100 | > 100 | 80.4
[6] | 2.39 | 85 | 95.2 | 69.1 | 27.4
[7] | 71.5 | 87.3 | 95.1 | 82.5 | 67.2
[8] | 86.1 | 93.1 | 87.2 | 98.8 | 82.1
[9] | 96.9 | 95.6 | 99.3 | > 100 | 88.3
[10] | 85.3 | 83.5 | 92.6 | 88.8 | 72.1
[11] | 86.5 | > 100 | > 100 | 97.5 | 76.2
[12] | 92.1 | 92.2 | 99.6 | 83.8 | 61.6
[13] | 7.21 | 82.2 | 86.3 | 78.1 | 48
[14] | 35.1 | 83.7 | > 100 | 54.6 | 67.1
[15] | 60.4 | 97.6 | 87.8 | 78.2 | 63.4

Settings | area under dose-response curve
[16] | < 0.0301
[17] | < 0.0301
[18] | < 0.0301
[19] | < 0.0301
[20] | < 0.0301
[21] | 0.119
[22] | 0.0466
[23] | < 0.0301
[24] | < 0.0301
[25] | 0.0334
[26] | 0.0306
[28] | 0.0402
[30] | 0.0538

O=C(CCl)N(CCCNC(=O)C(F)(F)F)c1ccc([N+](=O)[O-])cc1 [ML-175]
cell viability [%]
Settings | 1 nM | 10 nM | 100 nM | 1000 nM | 10000 nM
[1] | 87.8 | 82.6 | 29.4 | 51.2 | 2.44
[2] | 85.7 | 78.3 | 67.8 | 72.8 | < 0
[3] | 96.2 | 98.2 | 80.4 | 58.4 | 1.48
[4] | 94.8 | 93.7 | 89.3 | 82.8 | 4.31
[5] | 96.1 | 96.2 | 23.6 | 46.1 | 0.554
[6] | 99.9 | 51.6 | < 0 | 2.01 | < 0
[7] | 87.1 | 89 | 85.1 | 65.8 | 0.0301
[8] | 95 | 80.2 | 86.1 | 75.6 | 1.52
[9] | 95.5 | 97 | 86.2 | 67.7 | 1.51
[10] | 92.9 | 88.6 | 71.6 | 62.1 | 3.76
[11] | 97.1 | 94.4 | 70.2 | 61.2 | 1.29
[12] | 97.6 | 79.3 | 65.7 | 42.1 | 1.37
[13] | 64.6 | 81.5 | 7.88 | 7.21 | 0.492
[14] | 81.5 | 93.1 | 17.1 | 15.7 | 5.41
[15] | > 100 | 89.4 | 11.6 | 43.6 | 50

Settings | area under dose-response curve
[16] | 0.488
[17] | 0.149
[18] | 0.221
[19] | 0.147
[20] | 0.498
[21] | 0.744
[22] | 0.192
[23] | 0.159
[24] | 0.199
[25] | 0.19
[26] | 0.204
[27] | 0.29
[28] | 0.593
[29] | 0.542
[30] | 0.533
